Laboratory results published in patent publication US5556751A, “Selective amplification system using Q-β replicase” (Amoco Corporation, priority 1994, dated 1996).

Key:
[1] = target: replication of MDV-1 by Qβ replicase (Escherichia virus Qbeta, UniProt P14647); experiment: Inhibition of MDV-1 replication by dyes in linear-phase Qβ replicase reactions; format: biochemical, bacteriophage Qβ; details: for ability to inhibit the replication of MDV-1: linear-phase reactions, template RNA in excess over enzyme
Procedure: A number of dyes, including ethidium bromide, ethidium bromide homodimer, propidium iodide, proflavine, quinacrine, Hoescht 33258 (bis-benzamidine),dimidium bromide and acridine orange, were tested for their ability to inhibit the replication of MDV-1 in linear-phase reactions, i.e., where the template RNA is present in excess over the enzyme and the amount of replicated RNA thus increases linearly with time. […] One of the strongest inhibitors, propidium iodide, was selected for further study.

[2] = target: T1, replication of wild type MDV-1 RNA by Qβ replicase (Escherichia virus Qbeta, UniProt P14647); experiment: Effect of propidium iodide on replication of wild type MDV-1 RNA in a Qβ replicase preparation (32P-CTP incorporation time course); format: biochemical, bacteriophage Qβ
T1 construct: made in house
Procedure: Propidium iodide was tested for its effect on the replication of wild type RNA in a preparation of Qβ replicase. Propidium iodide in an amount of either 0, 1, or 3 μg/ml was added to a reaction buffer containing: 90 mM Tris HCl (pH7.5), 14 mM MgCl2, 0.4 mM each ATP, GTP, UTP, and CTP, and 10 μCi α- ^32 P-CTP. The Qβ replicase reaction was initiated in each sample by addition of 1.2 μg of Qβ replicase prepared according to the method of Eoyang and August, (1972), ibid. Aliquots of the reaction mixture were withdrawn every 5 minutes and spotted on DE81 filters (Schleicher & Schuell Inc., Keene, N.H.). The spotted filters were washed repeatedly with 0.5M NaPO4, (pH7.0) to remove unincorporated nucleotide. The filters were counted for Cerenkov radiation by standard procedures in a scintillation counter. Addition of propidium iodide delayed the point in time at which levels of incorporation resulting from the replication of wild type MDV-1 template became detectable.

Structure (SMILES) | ability to inhibit the replication of MDV-1 [1] | other results
Nc1ccc2cc3ccc(N)cc3nc2c1 [proflavine] | inhibited | –
CN(C)c1ccc2cc3ccc(N(C)C)cc3nc2c1 [acridine orange] | inhibited | –
CCN(CC)CCCC(C)Nc1c2ccc(Cl)cc2nc2ccc(OC)cc12 (stereo not shown) [quinacrine] | inhibited | –
CN1CCN(c2ccc3[nH]c(-c4ccc5[nH]c(-c6ccc(O)cc6)nc5c4)nc3c2)CC1 [Hoescht 33258, Hoescht 33258 (bis-benzamidine)] | except Hoescht 33258, inhibited | –
CC[N+](C)(CC)CCC[n+]1c(-c2ccccc2)c2cc(N)ccc2c2ccc(N)cc21 [propidium iodide] | inhibited | inhibition at 3 µg/mL ([1]; dye concentration about 3μg/ml): 70%; inhibition at 1 µg/mL ([2]; propidium iodide 1 μg/ml, read-out: inhibition of the rate of replication in the geometric phase): 20 to 50%; delay of the appearance of replicated product ([2]; propidium iodide 1 μg/ml, wild type MDV-1 template): 2 to 5 min; reduction in the rate of replication ([2]; propidium iodide 3μg/ml): ~3 fold; delay of the appearance of product ([2]; propidium iodide 3μg/ml, wild type MDV-1 template): about 20 minutes
CC[n+]1c(-c2ccccc2)c2cc(N)ccc2c2ccc(N)cc21 [ethidium bromide] | inhibited | –
Cl.Cl.Nc1ccc2c(c1)c(-c1ccccc1)[n+](CCCNCCNCCC[n+]1c(-c3ccccc3)c3cc(N)ccc3c3ccc(N)cc31)c1cc(N)ccc21.[Cl-].[Cl-] [ethidium bromide homodimer] | inhibited | –
C[n+]1c(-c2ccccc2)c2cc(N)ccc2c2ccc(N)cc21 [dimidium bromide] | inhibited | –
